Measurements reported in PubChem BioAssay (NCI).
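Five compound concentrations were applied to cells in 96-well plates for 48 hours; endpoints were derived by simple linear interpolation of the resulting dose-response curve. The concentration for 50% growth inhibition is given as GI50. The concentration for full growth arrest is given as TGI.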

Columns and labels:
Experiment in all cases: inhibition of tumour cell growth, NCI panel, 48 h
[1] = tested on: NCI-H460 lung
[2] = tested on: CAKI-1 renal
[3] = tested on: SN12C renal
[4] = tested on: HL-60(TB) leukemia
[5] = tested on: MDA-MB-231 breast
[6] = tested on: SF-295 CNS
[7] = tested on: SNB-19 CNS
[8] = tested on: SNB-75 CNS
[9] = tested on: MOLT-4 leukemia
[10] = tested on: T-47D breast
[11] = tested on: CCRF-CEM leukemia
[12] = tested on: MCF7 breast
[13] = tested on: SF-268 CNS
[14] = tested on: U251 CNS
[15] = tested on: OVCAR-3 ovarian
[16] = tested on: SK-OV-3 ovarian
[17] = tested on: SW-620 colon
[18] = tested on: OVCAR-8 ovarian
[19] = tested on: 786-0 renal
[20] = tested on: SK-MEL-5 melanoma
[21] = tested on: HS 578T breast
[22] = tested on: A549 NSCLC
[23] = tested on: RXF 393 renal
[24] = tested on: KM12 colon
[25] = tested on: NCI-H226 lung
[26] = tested on: HOP-92 NSCLC
[27] = tested on: HCT-15 colon
[28] = tested on: NCI-H23 lung
[29] = tested on: LOX IMVI melanoma
[30] = tested on: UACC-257 melanoma
[31] = tested on: SK-MEL-28 melanoma
[32] = tested on: COLO 205 colon
[33] = tested on: SK-MEL-2 melanoma
[34] = tested on: ACHN renal
[35] = tested on: RPMI-8226 leukemia
[36] = tested on: M14 melanoma
[37] = tested on: HCT-116 colon
[38] = tested on: SF-539 CNS
[39] = tested on: IGROV1 ovarian
[40] = tested on: NCI-H522 lung
[41] = tested on: OVCAR-4 ovarian
[42] = tested on: MDA-MB-435
[43] = tested on: UO-31 renal
[44] = tested on: A498 renal
[45] = tested on: DU-145 prostate
[46] = tested on: EKVX NSCLC
[47] = tested on: UACC-62 melanoma
[48] = tested on: HT29 colon
[49] = tested on: TK-10 renal
[50] = tested on: SR leukemia
[51] = tested on: NCI/ADR-RES ovarian
[52] = tested on: HOP-62 NSCLC
[53] = tested on: PC-3 prostate
[54] = tested on: MALME-3M melanoma
[55] = tested on: K-562 leukemia
[56] = tested on: OVCAR-5 ovarian
[57] = tested on: HCC-2998 colon

With `COc1cc2c3c(n(CCCNCCCNCCN)c(=O)c2cc1OC)-c1cc2c(cc1C3=O)OCO2` the GI50 [1] was over 100 µM, the TGI [1] was over 100 µM and the GI50 [2] was 87.8 µM. For the same molecule, the TGI [2] was over 100 µM, the GI50 [3] was 19.8 µM and the TGI [3] was 64.3 µM. The GI50 [4] was 46.9 µM, the TGI [4] was over 100 µM and the GI50 [5] was 28.8 µM. For the same molecule, the TGI [5] was over 100 µM, the GI50 [6] was over 100 µM and the TGI [6] was over 100 µM. It also gave a GI50 [7] of 53.9 µM, a TGI [7] of over 100 µM and a GI50 [8] of 28.9 µM. The TGI [8] was 94.6 µM, the GI50 [9] was 10.9 µM and the TGI [9] was over 100 µM. The GI50 [10] was 46.8 µM, the TGI [10] was over 100 µM and the GI50 [11] was 10.1 µM. For the same molecule, the TGI [11] was 32.2 µM, the GI50 [12] was 32.5 µM and the TGI [12] was over 100 µM. The GI50 [13] was over 100 µM, the TGI [13] was over 100 µM and the GI50 [14] was 18 µM. The TGI [14] was 44.2 µM, the GI50 [15] was 19.5 µM and the TGI [15] was 53.5 µM. It also gave a GI50 [16] of over 100 µM, a TGI [16] of over 100 µM and a GI50 [17] of 30.8 µM. It also gave a TGI [17] of over 100 µM, a GI50 [18] of 35.4 µM and a TGI [18] of over 100 µM. For the same molecule, the GI50 [19] was 26.2 µM, the TGI [19] was 82 µM and the GI50 [20] was 35.7 µM. The TGI [20] was over 100 µM, the GI50 [21] was 48.7 µM and the TGI [21] was over 100 µM. It also gave a GI50 [22] of over 100 µM, a TGI [22] of over 100 µM and a GI50 [23] of over 100 µM. It also gave a TGI [23] of over 100 µM, a GI50 [24] of 85 µM and a TGI [24] of over 100 µM. For the same molecule, the GI50 [25] was 79.4 µM, the TGI [25] was over 100 µM and the GI50 [26] was 39.7 µM. For the same molecule, the TGI [26] was over 100 µM, the GI50 [27] was over 100 µM and the TGI [27] was over 100 µM. The GI50 [28] was 24.7 µM, the TGI [28] was 78.7 µM and the GI50 [29] was 13.1 µM. The TGI [29] was 36.4 µM, the GI50 [30] was over 100 µM and the TGI [30] was over 100 µM. For the same molecule, the GI50 [31] was 48.5 µM, the TGI [31] was over 100 µM and the GI50 [32] was 23.8 µM. The TGI [32] was over 100 µM, the GI50 [33] was over 100 µM and the TGI [33] was over 100 µM. For the same molecule, the GI50 [34] was 18.7 µM, the TGI [34] was 57.1 µM and the GI50 [35] was 17.2 µM. For the same molecule, the TGI [35] was 49 µM, the GI50 [36] was 53.9 µM and the TGI [36] was over 100 µM. For the same molecule, the GI50 [37] was 23 µM, the TGI [37] was 57.9 µM and the GI50 [38] was 37.9 µM. For the same molecule, the TGI [38] was over 100 µM, the GI50 [39] was 32.3 µM and the TGI [39] was over 100 µM. For the same molecule, the GI50 [40] was 15.3 µM, the TGI [40] was 85.1 µM and the GI50 [41] was 18.6 µM. It also gave a TGI [41] of 55.6 µM, a GI50 [42] of 38 µM and a TGI [42] of over 100 µM. The GI50 [43] was over 100 µM, the TGI [43] was over 100 µM and the GI50 [44] was over 100 µM. The TGI [44] was over 100 µM, the GI50 [45] was 51.9 µM and the TGI [45] was over 100 µM. For the same molecule, the GI50 [46] was over 100 µM, the TGI [46] was over 100 µM and the GI50 [47] was 37.1 µM. The TGI [47] was over 100 µM, the GI50 [48] was 20.9 µM and the TGI [48] was 95.2 µM. The GI50 [49] was 53.7 µM, the TGI [49] was over 100 µM and the GI50 [50] was 9.86 µM. For the same molecule, the TGI [50] was 43.9 µM.

`c1cc2nnc1SCCSCCSCCSc1ccc(nn1)SCCSCCSCCS2` was tested, and the TGI [1] was over 100 µM, the TGI [3] was over 100 µM and the TGI [51] was over 100 µM. For the same molecule, the TGI [52] was over 100 µM, the TGI [5] was over 100 µM and the TGI [6] was over 100 µM. For the same molecule, the TGI [8] was over 100 µM, the TGI [10] was over 100 µM and the TGI [13] was over 100 µM. For the same molecule, the TGI [15] was over 100 µM, the TGI [16] was over 100 µM and the TGI [17] was over 100 µM. For the same molecule, the TGI [18] was over 100 µM, the TGI [20] was over 100 µM and the TGI [53] was over 100 µM. The TGI [21] was over 100 µM, the TGI [22] was over 100 µM and the TGI [26] was over 100 µM. For the same molecule, the TGI [27] was over 100 µM, the TGI [29] was over 100 µM and the TGI [30] was over 100 µM. The TGI [32] was over 100 µM, the TGI [33] was over 100 µM and the TGI [34] was over 100 µM. It also gave a TGI [36] of over 100 µM, a TGI [39] of over 100 µM and a TGI [40] of over 100 µM. For the same molecule, the TGI [41] was over 100 µM, the TGI [46] was over 100 µM and the TGI [54] was over 100 µM. For the same molecule, the TGI [47] was over 100 µM, the TGI [48] was over 100 µM and the TGI [50] was over 100 µM.

`O=C(Nc1cc(Cl)cc(Cl)c1)c1cccc(NC2=C(Cl)C(=O)N(Cc3ccccc3)C2=O)c1` showed a GI50 [55] of 7.89 µM, a TGI [55] of over 100 µM and a GI50 [1] of 33.2 µM. For the same molecule, the TGI [1] was over 100 µM, the GI50 [2] was 30.3 µM and the TGI [2] was over 100 µM. For the same molecule, the GI50 [3] was 40 µM, the TGI [3] was over 100 µM and the GI50 [51] was 30.3 µM. The TGI [51] was over 100 µM, the GI50 [52] was 37.4 µM and the TGI [52] was over 100 µM. It also gave a GI50 [56] of over 100 µM, a TGI [56] of over 100 µM and a GI50 [6] of 34.2 µM. For the same molecule, the TGI [6] was over 100 µM, the GI50 [7] was 54 µM and the TGI [7] was over 100 µM. It also gave a GI50 [9] of 4.15 µM, a TGI [9] of over 100 µM and a GI50 [10] of 66.5 µM. The TGI [10] was over 100 µM, the GI50 [11] was 4.09 µM and the TGI [11] was over 100 µM. The GI50 [12] was 21.7 µM, the TGI [12] was over 100 µM and the GI50 [13] was 42.7 µM. For the same molecule, the TGI [13] was over 100 µM, the GI50 [14] was 15.6 µM and the TGI [14] was over 100 µM. It also gave a GI50 [15] of 21.8 µM, a TGI [15] of over 100 µM and a GI50 [16] of 33.6 µM. It also gave a TGI [16] of over 100 µM, a GI50 [18] of 41.7 µM and a TGI [18] of over 100 µM. The GI50 [19] was 26.8 µM, the TGI [19] was over 100 µM and the GI50 [20] was 16.6 µM. The TGI [20] was 34.8 µM, the GI50 [53] was 19.6 µM and the TGI [53] was over 100 µM. The GI50 [21] was 32.7 µM, the TGI [21] was over 100 µM and the GI50 [22] was 36.3 µM. It also gave a TGI [22] of over 100 µM, a GI50 [23] of 18.9 µM and a TGI [23] of over 100 µM. It also gave a GI50 [24] of 31.5 µM, a TGI [24] of over 100 µM and a GI50 [25] of 51.4 µM. For the same molecule, the TGI [25] was over 100 µM, the GI50 [26] was 18.9 µM and the TGI [26] was 85.7 µM. The GI50 [27] was 24 µM, the TGI [27] was over 100 µM and the GI50 [28] was 27.8 µM. The TGI [28] was over 100 µM, the GI50 [29] was 12.1 µM and the TGI [29] was over 100 µM. The GI50 [31] was 54.7 µM, the TGI [31] was over 100 µM and the GI50 [32] was 31.5 µM. It also gave a TGI [32] of over 100 µM, a GI50 [33] of 65.2 µM and a TGI [33] of over 100 µM. For the same molecule, the GI50 [34] was 31.9 µM, the TGI [34] was over 100 µM and the GI50 [35] was 2.31 µM. The TGI [35] was over 100 µM, the GI50 [36] was 35.8 µM and the TGI [36] was over 100 µM. The GI50 [37] was 12 µM, the TGI [37] was over 100 µM and the GI50 [39] was 41.1 µM. It also gave a TGI [39] of over 100 µM, a GI50 [40] of 28.5 µM and a TGI [40] of over 100 µM. It also gave a GI50 [41] of 81.3 µM, a TGI [41] of over 100 µM and a GI50 [42] of 21.8 µM. For the same molecule, the TGI [42] was 88.1 µM, the GI50 [43] was 16.9 µM and the TGI [43] was over 100 µM. The GI50 [44] was 22.2 µM, the TGI [44] was 50.7 µM and the GI50 [45] was 32.1 µM. For the same molecule, the TGI [45] was over 100 µM, the GI50 [54] was 30.7 µM and the TGI [54] was 97.4 µM. The GI50 [57] was 37.1 µM, the TGI [57] was over 100 µM and the GI50 [47] was 29.2 µM. For the same molecule, the TGI [47] was over 100 µM, the GI50 [49] was 31.8 µM and the TGI [49] was over 100 µM. The GI50 [50] was 6.02 µM and the TGI [50] was 80.8 µM.
